# Results from PubChem BioAssay (NCI).
# Values joined by “and” are separate entries in the source; they are usually repeats but may differ in a detail not shown here. Identical values can stand only once.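 Protocol summary: plate cells (96-well), add compound at 5 concentrations, incubate 48 h, interpolate endpoints linearly. At the GI50, growth is halved. At the TGI there is no net growth.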 *1 amine or outer side, *2 acyl side, *3 side chain or, on linkers, in order; H or OH if unused. Where a SMILES comes first, the peptide text is derived from it. Bridges are numbered along the chain shown (N, C = ends). Roman numbers before positions name the chains, in order. [ ]: non-standard residue; d: D form. Actinocin(9to1) = Cc1c2oc3c(C)ccc(C(=O)[*:1])c3nc-2c(C(=O)[*:2])c(N)c1=O; NMeH = CN[CH](Cc1c[nH]cn1)C(=O)O; Sar = CNCC(=O)O
# Key:
# Assay in all cases: DTP human tumour cell line panel, 48 h
# A498 renal = system: A498 renal
# RPMI-8226 leukemia = system: RPMI-8226 leukemia
# HOP-92 NSCLC = system: HOP-92 NSCLC
# SW-620 colon = system: SW-620 colon
# SF-539 CNS = system: SF-539 CNS
# SN12C renal = system: SN12C renal
# NCI-H23 lung = system: NCI-H23 lung
# HT29 colon = system: HT29 colon
# SNB-19 CNS = system: SNB-19 CNS
# MALME-3M melanoma = system: MALME-3M melanoma
smiles,measurement,setting,value
COc1ccc(-n2c(=O)c3[nH]c(=S)[nH]c3n(-c3ccc(OC)cc3)c2=S)cc1,TGI,A498 renal,> 100 µM
same,TGI,RPMI-8226 leukemia,> 100 µM
same,TGI,HOP-92 NSCLC,> 100 µM
same,TGI,SW-620 colon,> 100 µM
same,TGI,SF-539 CNS,> 100 µM
same,TGI,SN12C renal,> 100 µM
same,TGI,NCI-H23 lung,> 100 µM
same,TGI,HT29 colon,> 100 µM
O=C1COc2cc(N3CCN(c4cccc(C(F)(F)F)c4)CC3)ccc2N1,TGI,SNB-19 CNS,> 100 µM
same,TGI,RPMI-8226 leukemia,> 100 µM
same,TGI,HOP-92 NSCLC,> 100 µM
same,TGI,SW-620 colon,> 100 µM
same,TGI,SF-539 CNS,> 100 µM
same,TGI,SN12C renal,> 100 µM
same,TGI,NCI-H23 lung,> 100 µM
same,TGI,HT29 colon,> 100 µM
"Cc1c2oc3c(C)ccc(C(=O)NC4C(=O)NC(C(C)C)C(=O)N5CCCC5C(=O)N(C)CC(=O)N(C)C(Cc5cnc[nH]5)C(=O)OC4C)c3nc-2c(C(=O)NC2C(=O)NC(C(C)C)C(=O)N3CCCC3C(=O)N(C)CC(=O)N(C)C(Cc3cnc[nH]3)C(=O)OC2C)c(N)c1=O (centres undefined) (I: TVP[Sar][NMeH] / II: TVP[Sar][NMeH]; ester I:1-I:C, II:1-II:C; linker I:N-II:N via Actinocin(9to1); configuration not given here)",TGI,SNB-19 CNS,> 100 µM
same,TGI,RPMI-8226 leukemia,> 100 µM
same,TGI,HOP-92 NSCLC,> 100 µM
same,TGI,SW-620 colon,> 100 µM
same,TGI,MALME-3M melanoma,> 100 µM
same,TGI,SF-539 CNS,> 100 µM
same,TGI,SN12C renal,> 100 µM
same,TGI,NCI-H23 lung,> 100 µM
same,TGI,HT29 colon,> 100 µM
CCC1(O)CC(OC2CC(N(C)C)C(OC3CC(O)C(OC4OC(C)C(=O)C=C4N)C(C)O3)C(C)O2)c2c(cc3c(c2O)C(=O)c2c(O)cccc2C3=O)C1C(=O)OC (centres undefined),TGI,SNB-19 CNS,2.05 µM
same,TGI,RPMI-8226 leukemia,0.154 µM and 0.0597 µM
same,GI50,HOP-92 NSCLC,0.0377 µM
same,TGI,HOP-92 NSCLC,1.41 µM and 2.8 µM
same,TGI,SW-620 colon,1.76 µM and 1.2 µM
same,GI50,MALME-3M melanoma,0.0208 µM
same,TGI,MALME-3M melanoma,0.233 µM and 0.137 µM
same,TGI,SF-539 CNS,0.502 µM and 1.4 µM
same,GI50,SN12C renal,0.0924 µM
same,TGI,SN12C renal,1.51 µM and 2.29 µM
same,GI50,NCI-H23 lung,0.0144 µM
same,TGI,NCI-H23 lung,2.95 µM
same,TGI,HT29 colon,0.431 µM and 1.24 µM
CCOC(=O)c1ccc(Nc2nc3ccccc3nc2-c2cccs2)cc1,TGI,SNB-19 CNS,> 100 µM
same,TGI,RPMI-8226 leukemia,> 100 µM
same,TGI,MALME-3M melanoma,> 100 µM
same,TGI,SF-539 CNS,> 100 µM
same,TGI,SN12C renal,99.3 µM
same,TGI,NCI-H23 lung,> 100 µM
CCN1C/C(=C\c2ccc(Cl)cc2)c2nc(N)c(C#N)c(-c3ccc(Cl)cc3)c2C1,TGI,SNB-19 CNS,> 100 µM
same,TGI,A498 renal,> 100 µM
same,TGI,RPMI-8226 leukemia,> 100 µM
same,TGI,SW-620 colon,> 100 µM
same,TGI,MALME-3M melanoma,> 100 µM
same,TGI,NCI-H23 lung,> 100 µM
same,TGI,HT29 colon,> 100 µM
Cc1c(CNc2ccc(C(=O)NC(CCCNC(=O)c3ccccc3C(=O)O)C(=O)O)cc2)cnc2nc(N)nc(N)c12 (centres undefined),TGI,SNB-19 CNS,> 100 µM
same,GI50,A498 renal,> 100 µM
same,TGI,A498 renal,> 100 µM
same,GI50,RPMI-8226 leukemia,0.0216 µM
same,TGI,RPMI-8226 leukemia,> 100 µM
same,GI50,HOP-92 NSCLC,> 100 µM
same,TGI,SW-620 colon,> 100 µM
same,TGI,SN12C renal,> 100 µM
COc1ccc(C2C3=C(N=C4SC(C(C)=O)=C(C)N42)c2ccccc2CC3)cc1 (centres undefined),TGI,SNB-19 CNS,> 100 µM
same,TGI,A498 renal,> 100 µM
same,TGI,RPMI-8226 leukemia,29.9 µM
same,TGI,HOP-92 NSCLC,> 100 µM
same,TGI,SW-620 colon,> 100 µM
same,TGI,SF-539 CNS,> 100 µM
same,TGI,SN12C renal,> 100 µM
same,TGI,NCI-H23 lung,> 100 µM
same,TGI,HT29 colon,> 100 µM
COc1ccccc1OCC(COC(=O)Nc1ccccc1)OC(=O)Nc1ccccc1 (centres undefined),TGI,SNB-19 CNS,> 100 µM
same,TGI,A498 renal,> 100 µM
same,TGI,HOP-92 NSCLC,28.7 µM
same,TGI,SW-620 colon,> 100 µM
same,TGI,MALME-3M melanoma,> 100 µM
same,TGI,SF-539 CNS,33.4 µM
same,TGI,SN12C renal,> 100 µM
same,TGI,NCI-H23 lung,> 100 µM
same,TGI,HT29 colon,> 100 µM
Cc1cn(C2CCC(CO)(CF)O2)c(=O)[nH]c1=O (centres undefined),TGI,SNB-19 CNS,> 100 µM
same,TGI,A498 renal,> 100 µM
same,TGI,RPMI-8226 leukemia,> 100 µM
same,TGI,HOP-92 NSCLC,> 100 µM
same,TGI,SW-620 colon,> 100 µM
same,TGI,SF-539 CNS,> 100 µM
same,TGI,SN12C renal,> 100 µM
same,TGI,NCI-H23 lung,> 100 µM
same,TGI,HT29 colon,> 100 µM
N#CC1(C#N)C(C#N)(C#N)C1(C#N)C(N)=O,TGI,SNB-19 CNS,> 100 µM
same,TGI,A498 renal,> 100 µM
same,TGI,RPMI-8226 leukemia,> 100 µM
same,TGI,HOP-92 NSCLC,> 100 µM
same,TGI,SW-620 colon,> 100 µM
same,TGI,MALME-3M melanoma,> 100 µM
same,TGI,SN12C renal,> 100 µM
same,TGI,NCI-H23 lung,> 100 µM
same,TGI,HT29 colon,> 100 µM
CNc1nnc(CCCCCCCCc2nnc(NC)o2)o1,TGI,SNB-19 CNS,> 100 µM
same,TGI,A498 renal,> 100 µM
same,TGI,HOP-92 NSCLC,> 100 µM
same,TGI,SW-620 colon,> 100 µM
same,TGI,SF-539 CNS,> 100 µM
same,TGI,SN12C renal,> 100 µM
same,TGI,NCI-H23 lung,> 100 µM
same,TGI,HT29 colon,90.8 µM
Cc1cc2[nH]c3c(C#N)c(-c4ccccc4)c(N=Nc4ccc(F)cc4)c(=O)n3c2cc1C,TGI,SNB-19 CNS,> 100 µM
same,TGI,A498 renal,> 100 µM
same,TGI,RPMI-8226 leukemia,> 100 µM
same,TGI,SW-620 colon,> 100 µM
same,TGI,SF-539 CNS,> 100 µM
same,TGI,SN12C renal,> 100 µM
same,TGI,NCI-H23 lung,> 100 µM
Cn1nc2ccc(Nc3cc(=O)[nH]c4ccc5nn(C)nc5c34)cc2n1,TGI,SNB-19 CNS,> 100 µM
same,TGI,A498 renal,> 100 µM
same,TGI,HOP-92 NSCLC,> 100 µM
same,TGI,SW-620 colon,> 100 µM
same,TGI,MALME-3M melanoma,> 100 µM
same,TGI,SF-539 CNS,> 100 µM
same,TGI,SN12C renal,> 100 µM
same,TGI,NCI-H23 lung,> 100 µM
same,TGI,HT29 colon,> 100 µM
CN(Cc1cnc2nc(N)nc(N)c2n1)c1ccc(C(=O)NC23CC4CC(CC(C4)C2)C3)cc1,TGI,SNB-19 CNS,18.6 µM
same,TGI,A498 renal,> 100 µM
same,TGI,RPMI-8226 leukemia,70.8 µM
same,TGI,SW-620 colon,> 100 µM
same,TGI,MALME-3M melanoma,26.3 µM
same,TGI,SN12C renal,56.8 µM
same,TGI,NCI-H23 lung,22.3 µM
CC1=NN(c2cccc(Cl)c2)C2(C1=Cc1ccc(O)cc1)C(Cl)C(=O)N2c1nc2ccccc2s1 (centres undefined),TGI,A498 renal,42.5 µM
same,TGI,RPMI-8226 leukemia,55.8 µM
same,TGI,HOP-92 NSCLC,37.5 µM
same,TGI,SW-620 colon,34.8 µM
same,TGI,SF-539 CNS,> 100 µM
same,TGI,NCI-H23 lung,38.4 µM
same,TGI,HT29 colon,63.3 µM
O=c1c2cc(C(F)(F)F)ccc2sc2c(NCCCNCCO)nc3ccccc3c12,GI50,SNB-19 CNS,1.65 µM
same,TGI,SNB-19 CNS,3.1 µM
same,GI50,A498 renal,1.61 µM
same,TGI,A498 renal,3.06 µM
same,GI50,HOP-92 NSCLC,1.08 µM
same,TGI,HOP-92 NSCLC,2.4 µM
same,GI50,SW-620 colon,1.54 µM
same,TGI,SW-620 colon,2.98 µM
same,GI50,MALME-3M melanoma,1.59 µM
same,TGI,MALME-3M melanoma,3.09 µM
same,GI50,SF-539 CNS,1.6 µM
same,TGI,SF-539 CNS,3.03 µM
same,GI50,SN12C renal,1.64 µM
same,TGI,SN12C renal,3.12 µM
same,GI50,NCI-H23 lung,1.58 µM
same,TGI,NCI-H23 lung,3.02 µM
O=[N+]([O-])c1ccc(NN=C2CN3CCN(C2)c2ccccc23)c([N+](=O)[O-])c1,TGI,SNB-19 CNS,> 100 µM
same,TGI,A498 renal,> 100 µM
same,TGI,HOP-92 NSCLC,> 100 µM
same,TGI,SW-620 colon,> 100 µM
same,TGI,MALME-3M melanoma,> 100 µM
same,TGI,SF-539 CNS,> 100 µM
same,TGI,SN12C renal,> 100 µM
same,TGI,NCI-H23 lung,> 100 µM
same,TGI,HT29 colon,> 100 µM
O=C(COc1ccc(OCC(=O)N2C(=O)CC(=O)N(c3ccc(Cl)cc3)C2=S)cc1)N1C(=O)CC(=O)N(c2ccc(Cl)cc2)C1=S,TGI,SNB-19 CNS,> 100 µM
same,TGI,A498 renal,> 100 µM
same,TGI,RPMI-8226 leukemia,> 100 µM
same,TGI,HOP-92 NSCLC,70.4 µM
same,TGI,SW-620 colon,> 100 µM
same,TGI,MALME-3M melanoma,93.5 µM
same,TGI,SN12C renal,> 100 µM
same,TGI,NCI-H23 lung,> 100 µM
same,TGI,HT29 colon,> 100 µM
COc1cccc(N=N/C(=N/NC(=O)c2ccc(C)cc2)c2ccc(N(CCC#N)CCC#N)cc2OC)c1,TGI,SNB-19 CNS,> 100 µM
same,TGI,A498 renal,> 100 µM
same,TGI,RPMI-8226 leukemia,> 100 µM
same,TGI,HOP-92 NSCLC,> 100 µM
same,TGI,SW-620 colon,> 100 µM
same,TGI,MALME-3M melanoma,> 100 µM
same,TGI,SN12C renal,> 100 µM
same,TGI,NCI-H23 lung,> 100 µM
same,TGI,HT29 colon,35.5 µM
N#Cc1nc2cc(Cl)ccc2nc1N1CCN(c2ccc([N+](=O)[O-])cc2)CC1,TGI,SNB-19 CNS,> 100 µM
same,TGI,A498 renal,> 100 µM
same,TGI,RPMI-8226 leukemia,> 100 µM
same,TGI,SW-620 colon,> 100 µM
same,TGI,SF-539 CNS,> 100 µM
same,TGI,SN12C renal,> 100 µM
same,TGI,NCI-H23 lung,> 100 µM
same,TGI,HT29 colon,> 100 µM
